{"source": "patent US20230404969A1", "about": "“COMPOSITIONS AND METHOD FOR EFFECTIVE MANAGEMENT OF PERITONITIS” (priority 2022, published 2023)", "key": {"[1]": {"test_system": "polymorphonuclear leukocytes, macrophages, lymphocytes", "test": "Zymosan A induced peritonitis, acute study: intraperitoneal cellular influx", "assay_type": "in vivo, BALB/c male mice", "details": "2 mg/kg p.o (of 0.5, 1, 2, 4 mg/kg); 4, 12, 24 and 48 hrs after Zymosan A i.p.", "experimental": "Peritoneal inflammation was induced according to Doherty et al. in BALB/c male mice aged 6-8 weeks. Zymosan A (Sigma Chemical) was prepared freshly (2 mg/ml) in sterile, 0.9% w/v saline, and 0.5 ml was injected i.p. Zymosan A is a cell wall component of fungus, caused proliferative peritonitis with severe accumulation of inflammatory cells. At the selected time points 4, 12, 24 and 48 hrs, the peritoneal cavity was lavaged with 1.5 ml saline, and after a 30-s gentle manual massage, 0.5 ml exudate was retrieved, centrifuged at 3000 g for 3 min. 0.5 ml exudate was collected and used freshly for cell counts."}, "CD8+ T cells": {"test_system": "CD8+ T cells", "test": "Zymosan peritonitis chronic study: peripheral blood CD8+ T cell population (flow cytometry)", "assay_type": "in vivo, mouse", "details": "Withanone 2 mg/kg, day 36", "experimental": "(§1) Peritoneal inflammation was induced by Zymosan A (Sigma Chemical) (Masashi et al. Zymosan, but Not Lipopolysaccharide, Triggers Severe and Progressive Peritoneal Injury Accompanied by complement Activation in a Rat Peritonitis Model) was prepared freshly in sterile, 0.9% w/v saline, and 0.5 ml was injected i.p. from day 0 to Day 5. The lymphocyte population in the peripheral blood was determined with a flow cytometer. Cells were phenotyped by flow cytometry with the following primary antibodies: CD4 (FITC) and CD8 (PE). Cells were gated broadly on all live lymphocyte cells, with only debris and multiple cell clusters being excluded. Analysis of mean fluorescence intensity was done and percentage cell population was evaluated. The test drugs were administered for 30 days after the induction of peritonitis. […]\nFlow cytometry enables the characterization of cells and subcellular organelles on the basis of size and granularity and a number of different parameters defined by fluorescent probes. […] Fluorochrome labelled monoclonal antibodies directed against co-receptors CD4 and CD8 were used to quantify the lymphocyte subsets in a multiparametric flow cytometric assay. […]"}, "MCP-1": {"test_system": "MCP-1", "test": "Cytometric Bead Array of peritoneal fluid, chronic zymosan peritonitis: MCP-1", "assay_type": "in vivo, mouse", "details": "2 mg/kg, vs Zymosan control", "experimental": "as §1, with “evaluated.” for “evaluated. The test drugs were administered for 30 days after the induction of peritonitis.”\n(§2) The Cytometric Bead Array (Mouse Inflammation kit) was used to study cytokines in peritoneal fluid. […] Briefly, a mixture of 6 capture bead populations (50 μl) with distinct fluorescence intensities (detected in FL3) coated with antibodies specific for the above cytokines was mixed with each sample/standard (50 μl). […] Following acquisition of data by two colour cytometric analysis, the sample results were analysed using CBA software (BD Biosciences). […] Individual cytokine concentration ratios were indicated by their fluorescent intensities and was determined by interpolation from the corresponding standard curve."}, "IL-12p70": {"test_system": "IL-12p70", "test": "Cytometric Bead Array of peritoneal fluid, chronic zymosan peritonitis: IL-12", "assay_type": "in vivo, mouse", "details": "2 mg/kg, vs Zymosan control", "experimental": "as §1, with “evaluated.” for “evaluated. The test drugs were administered for 30 days after the induction of peritonitis.”\nas §2"}, "[2]": {"test_system": "Klebsiella pneumoniae (Gram-negative)", "test": "Bacterial translocation from the gut into organs: K. pneumoniae", "assay_type": "in vivo", "details": "Withanone 2 mg/kg; positive/6 mice", "experimental": "(§3) Peritoneal inflammation was induced by Zymosan A (Sigma Chemical) (Masashi et al. Zymosan, but Not Lipopolysaccharide, Triggers Severe and Progressive Peritoneal Injury Accompanied by complement Activation in a Rat Peritonitis Model) was prepared freshly in sterile, 0.9% w/v saline, and 0.5 ml was injected i.p. from day 0 to Day 5. The lymphocyte population in the peripheral blood was determined with a flow cytometer. Cells were phenotyped by flow cytometry with the following primary antibodies: CD4 (FITC) and CD8 (PE). Cells were gated broadly on all live lymphocyte cells, with only debris and multiple cell clusters being excluded. Analysis of mean fluorescence intensity was done and percentage cell population was evaluated. The test drugs were administered for 30 days after the induction of peritonitis. On 36th day the peritoneal cavity was lavaged with 1.5 ml saline, and after a 30-s gentle manual massage, 0.5 ml exudate was retrieved, centrifuged at 3000 g for 3 min, and frozen at […] prior to cytokine and chemotactic-factor assessment.\n(§4) Intestine serves as a barrier in preventing gut bacteria and/or endotoxin from spreading to organs and tissues. It is also known that bacterial translocation occurs in critically ill or immunocompromised patients, and the physical disruption of mucosal barrier in vivo rodent models seem to be a key factor Tor translocation (Deitch et al. Effect of hemorrhagic shock on bacterial translocation, intestinal morphology, and intestinal permeability in conventional and antibiotic-decontaminated rats; Critical Care Medicine; 1990 18(5)). Bacterial translocation from the gut into the peritoneal cavity and organs was analyzed. The mesenteric lymph nodes, liver, and spleen of mice, study group of 30, were removed using sterile instruments. The organs were then homogenized in 1 ml of sterile cooked meat broth and 50 μl of organ homogenate was spread on blood agar plates to detect aerobic bacteria and Eosin Methylene blue agar plates to detect specially for E. coli. These plates were then incubated at 37° C. for 2 days. […]"}, "[3]": {"test_system": "Proteus mirabilis (Gram-negative)", "test": "Bacterial translocation from the gut into organs: P. mirabilis", "assay_type": "in vivo", "details": "Withanone 2 mg/kg; positive/6 mice", "experimental": "as §3, §4"}, "Procalcitonin": {"test_system": "Procalcitonin", "test": "Procalcitonin in serum (ELISA), chronic zymosan peritonitis", "assay_type": "in vivo, mouse", "details": "2 mg/kg", "experimental": "as §3\nProcalcitonin is a precursor for calcitonin, a peptide hormone involved in calcium homeostasis. In response to pro-inflammatory stimulus of bacterial origin, the procalcitonin level rises. The blood was collected from retro-orbital plexus from the animals of all groups. The blood was allowed to stand for 2 hrs without addition of anti-coagulant. […]"}}}
{"molecule": "CC1=C(C)C(=O)O[C@@H]([C@@H](C)[C@@]2(O)CC[C@H]3[C@@H]4[C@@H]5O[C@@H]5[C@@]5(O)CC=CC(=O)[C@]5(C)[C@H]4CC[C@@]32C)C1", "note": "[Withanone]", "values": [{"measurement": "Inhibition of intraperitoneal cellular influx", "setting": "[1]", "value": "maximum effect in inhibiting cellular influx"}, {"measurement": "Inhibition of CD8+ compared to T cell population of Zymosan control", "setting": "CD8+ T cells", "value": 44, "unit": "%"}, {"measurement": "Inhibition of MCP-1", "setting": "MCP-1", "value": 51, "unit": "%"}, {"measurement": "Inhibition of IL-12", "setting": "IL-12p70", "value": 53, "unit": "%"}, {"measurement": "Bacterial translocation, Liver, k. pneumonia", "setting": "[2]", "value": "0/6"}, {"measurement": "Bacterial translocation, Mesenteric Lymph Nodes, k. pneumonia", "setting": "[2]", "value": "0/6"}, {"measurement": "Bacterial translocation, Spleen, k. pneumonia", "setting": "[2]", "value": "1/6"}, {"measurement": "Bacterial translocation, Liver, p. mirabilis", "setting": "[3]", "value": "0/6"}, {"measurement": "Bacterial translocation, Mesenteric Lymph Nodes, p. mirabilis", "setting": "[3]", "value": "0/6"}, {"measurement": "Bacterial translocation, Spleen, p. mirabilis", "setting": "[3]", "value": "0/6"}, {"measurement": "Decrease of expression level of procalcitonin compared to the Zymosan control", "setting": "Procalcitonin", "value": "~60", "unit": "%"}]}
